SMILES strings stand for the structures.

The conditions of data set [1]: estimated from a survey of the literature; miscible means totally soluble in water in all amounts; cited from earlier work.
A short description of data set [2]: Approximate relative solubility of active ingredients in organic solvents at ambient temperature. It counts as physicochemical.
The nature of data set [3]: Solubility of Compound A and prothioconazole in benzyl acetate/AMD810/cyclohexanone blends at 10° C. The class given is physicochemical. Conditions: one week. As to the method: A total of 20 g of each solvent blend was prepared per sample. For example, one of the blends (Blend 4) was prepared by combining cyclohexanone 0.2 (4 g), benzyl acetate 0.2 (4 g) and AMD810 0.6 (12 g). To Blend 4 were added amounts of Compound A and prothioconazole technical active ingredients to achieve saturation concentrations of each. The samples were then stored at 10° C. for one week and then were analysed for soluble active ingredient content.

Data set [4] can be described thus: Solubility of a mixture of Compound A and prothioconazole in benzyl acetate/AMD810 blends at 10° C. (HPLC). The class given is physicochemical. Conditions: both actives saturated. Here is the method:
A study of the Compound A and prothioconazole solubility in blends of benzyl acetate/AMD810 was conducted. To each solvent blend both actives were added until each was saturated and the resulting mixtures were then stored at 10° C. until equilibrium was obtained. Aliquots of the supernatant layer were taken from each sample, filtered (0.45 μm mesh) and analyzed by HPLC to determine the solution concentration of each active in the blends.

As to `CC(=O)OCc1ccccc1` [Benzyl acetate], in data set [1], the “Solubility of Solvent in Water” value was 1000 to 3100 µg/mL.
Consider `CCCCOC(=O)C(C)O` (stereo not shown) [Butyl lactate], for which the “Solubility of Solvent in Water” value in data set [1] was 42000 µg/mL.
In the case of `O=C1CCCCC1` [Cyclohexanone], the “Solubility of Solvent in Water” value in data set [1] was 8600 to 25000 µg/mL.
For `CCCCOC(=O)OCCCC` [Di-n-butyl carbonate], the “Solubility of Solvent in Water” value in data set [1] is 820 µg/mL.
As for `CCOCCOCCO` [Diethylene glycol monoethyl ether], the “Solubility of Solvent in Water” value in data set [1] is listed as “Miscible”.
Take `CCOCCOCCOC(C)=O` [Ethyl Diglycol Acetate]: the “Solubility of Solvent in Water” value in data set [1] is “Miscible”.
As for `CC(C)OC(=O)c1ccccc1` [Isopropyl benzoate], the “Solubility of Solvent in Water” value in data set [1] is 640 µg/mL.
On to `CCCCCCCC/C=C\CCCCCCCC(=O)OC` [Methyl oleate], for which the “Solubility of Solvent in Water” value in data set [1] is 1.1 µg/mL.
In the case of `COC(=O)c1ccccc1O` [Methyl salicylate], the “Solubility of Solvent in Water” value in data set [1] was less than 5000 µg/mL.
In the case of `COC(=O)C(C)CCC(=O)N(C)C` (stereo not shown) [Methyl-5-(Dimethylamino)-2-Methyl-5-Oxopentanoate], the “Solubility of Solvent in Water” value in data set [1] is 79000 µg/mL.
With `COC(=O)CCC(C)C(=O)OC` (stereo not shown) [Pentanedioic acid, 2-methyl-1,5-dimethyl ester], the “Solubility of Solvent in Water” value in data set [1] is 25000 µg/mL.
As for `CC1COC(=O)O1` (stereo not shown) [Propylene carbonate], the “Solubility of Solvent in Water” value in data set [1] was 17500 µg/mL.
Take `OC(Cc1ccccc1Cl)(Cn1nc[nH]c1=S)C1(Cl)CC1` (stereo not shown) [Prothioconazole, prothioconazole]: the “Relative Solubility of Prothioconazole” value is recorded as “Very Low (<10)” in data set [2] (in 2-ethylhexanol); “Very Low (<10)” in data set [2] (in 2-ethylhexyl benzoate); “Medium (>20 to 30)” in data set [2] (in 2-ethylhexyl lactate); “Low (10 to 20)” in data set [2] (in 2-heptanone); “Very Low (<10)” in data set [2] (in Alkyl naphthalene mixture); “Low (10 to 20)” in data set [2] (in Benzyl acetate). In addition, the “Relative Solubility of Prothioconazole” value is recorded as “Medium (>20 to 30)” in data set [2] (in Benzyl alcohol); “Low (10 to 20)” in data set [2] (in Butyl benzoate); “Low (10 to 20)” in data set [2] (in Butyl lactate); “Very Low (<10)” in data set [2] (in Butylene carbonate); “High (>30)” in data set [2] (in Cyclohexanone); “Very Low (<10)” in data set [2] (in Di-n-butyl carbonate). For the same molecule, the “Relative Solubility of Prothioconazole” value is reported as “High (>30)” in data set [2] (in Diethylene glycol monoethyl ether); “Very Low (<10)” in data set [2] (in Ethyl Diglycol Acetate); “Very Low (<10)” in data set [2] (in Isoparaffin); “Very Low (<10)” in data set [2] (in Isopropyl benzoate); “Very Low (<10)” in data set [2] (in Methyl oleate); “Very Low (<10)” in data set [2] (in Methyl salicylate). Besides, the “Relative Solubility of Prothioconazole” value in data set [2] (in Methyl-5-(Dimethylamino)-2-Methyl-5-Oxopentanoate) is listed as “High (>30)”; in data set [2] (in N,N dimethyl fatty acid amides), “High (>30)”; in data set [2] (in N-formyl morpholine and propylene carbonate), “Medium (>20 to 30)”; in data set [2] (in Pentanedioic acid, 2-methyl-1, 5-dimethyl ester), “Low (10 to 20)”; in data set [2] (in Polyethylene glycol) it was “Medium (>20 to 30)”; in data set [2] (in Polypropylene glycol), “Low (10 to 20)”. In addition, the “Relative Solubility of Prothioconazole” value in data set [2] (in Propylene carbonate) is “Very Low (<10)”; in data set [2] (in Soybean oil), “Very Low (<10)”; in data set [2] (in Sulfolane), “Low (10 to 20)”; in data set [2] (in Tributoxyethyl phosphate), “High (>30)”; in data set [2] (in dimethyl esters of adipic, glutaric and succinic acids), “Low (10 to 20)”. For the same molecule, the “Prothioconazole Solubility @ 10° C.” value in data set [3] (Blend 1: cyclohexanone 0/benzyl acetate 0/AMD810 1 (weight fraction)) was 34.3 % w/w; in data set [3] (Blend 2: cyclohexanone 0/benzyl acetate 0.2/AMD810 0.8 (weight fraction)) it was 32.3 % w/w; in data set [3] (Blend 3: cyclohexanone 0.2/benzyl acetate 0/AMD810 0.8 (weight fraction)), 33.9 % w/w; in data set [3] (Blend 4: cyclohexanone 0.2/benzyl acetate 0.2/AMD810 0.6 (weight fraction)), 32.9 % w/w; in data set [3] (Blend 5: cyclohexanone 0/benzyl acetate 0.4/AMD810 0.6 (weight fraction)), 33.1 % w/w; in data set [3] (Blend 6: cyclohexanone 0.2/benzyl acetate 0.4/AMD810 0.4 (weight fraction)), 32.1 % w/w. The “Prothioconazole Solubility @ 10° C.” value is on record as 32.1 % w/w in data set [3] (Blend 7: cyclohexanone 0/benzyl acetate 0.6/AMD810 0.4 (weight fraction)); 26.6 % w/w in data set [3] (Blend 8: cyclohexanone 0/benzyl acetate 0.8/AMD810 0.2 (weight fraction)); 29.9 % w/w in data set [3] (Blend 10: cyclohexanone 0.2/benzyl acetate 0.6/AMD810 0.2 (weight fraction)); 16.2 % w/w in data set [3] (Blend 11: cyclohexanone 0/benzyl acetate 1/AMD810 0 (weight fraction)); 18.4 % w/w in data set [3] (Blend 12: cyclohexanone 0.2/benzyl acetate 0.8/AMD810 0 (weight fraction)). The “Prothioconazole Solubility at 10° C.” value in data set [4] (benzyl acetate 0 wt % in blend with AMD810) was 31.3 % w/w; in data set [4] (benzyl acetate 20 wt % in blend with AMD810), 32.3 % w/w; in data set [4] (benzyl acetate 40 wt % in blend with AMD810), 33.1 % w/w; in data set [4] (benzyl acetate 60 wt % in blend with AMD810), 32.1 % w/w; in data set [4] (benzyl acetate 80 wt % in blend with AMD810), 26.6 % w/w; in data set [4] (benzyl acetate 100 wt % in blend with AMD810), 16.2 % w/w.

The values are drawn from patent US20160183526A1, “FUNGICIDAL COMPOSITIONS” (Dow AgroSciences LLC, priority 2014, published 2016).
